# Laboratory results from US9221809B2 (MERCK SHARP & DOHME CORP., priority 2011, dated 2015).
# Counter-ions that a name gives are not always drawn.
# Target: IRAK4 (Homo sapiens (Human), UniProt Q9NWZ3)
# Experiment: IRAK4 kinase activity, IMAP fluorescence polarization assay
# Assay type: biochemical
# Settings: 100 μM ATP, 0.5 nM GST tagged IRAK4; read-out: IRAK4 IC50
# How it was run: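 Fluorescence polarization (IMAP nanoparticle binding of phosphopeptide) reports activity after a 30 min, 25 °C reaction. Conditions: 100 μM ATP, 0.5 nM GST-IRAK4, 100 nM fluorescent peptide, 10 mM Tris pH 7.2, 1 mM MgCl2, 1 mM DTT, 0.01% Tween 20.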
# Sequence of IRAK4 (Q9NWZ3 whole entry): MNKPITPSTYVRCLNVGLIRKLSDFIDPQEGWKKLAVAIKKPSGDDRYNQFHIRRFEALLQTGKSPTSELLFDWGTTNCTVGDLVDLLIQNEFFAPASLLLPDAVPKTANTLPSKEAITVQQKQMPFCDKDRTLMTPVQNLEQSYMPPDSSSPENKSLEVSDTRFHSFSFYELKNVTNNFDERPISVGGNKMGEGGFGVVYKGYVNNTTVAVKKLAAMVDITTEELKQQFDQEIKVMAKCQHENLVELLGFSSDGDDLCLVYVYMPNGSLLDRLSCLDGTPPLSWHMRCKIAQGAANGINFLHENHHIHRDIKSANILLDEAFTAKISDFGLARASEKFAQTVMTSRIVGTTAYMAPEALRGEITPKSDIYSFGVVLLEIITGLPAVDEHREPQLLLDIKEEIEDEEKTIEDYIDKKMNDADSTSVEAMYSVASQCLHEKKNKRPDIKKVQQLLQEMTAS
row,IC50 [nM],SMILES
1,324,"O=c1[nH]c(NC2CC(F)(F)C2)nc(N[C@@H]2C[C@H](CO)[C@@H](O)[C@H]2O)c1-c1nc2ccccc2s1 [Example 9, 5-(Benzo[d]thiazol-2-yl)-2-(3,3-difluorocyclobutylamino)-6-((1R,2S,3R,4R)-2,3-dihydroxy-4-(hydroxymethyl)cyclopentylamino)pyrimidin-4(3H)-one.HCl]"
2,354,"CN1CCC[C@@H](Nc2nc(N3CCOCC3)[nH]c(=O)c2-c2nc3ccccc3s2)C1 [Example 95, (R)-5-(Benzo[d]thiazol-2-yl)-6-(1-methylpiperidin-3-ylamino)-2-morpholinopyrimidin-4(3H)-one.HCl]"
3,72,"CC(C)[C@H]1C[C@@H](Nc2nc(N3CCOCC3)[nH]c(=O)c2-c2nc3ccccc3s2)[C@H](O)[C@@H]1O [Example 42, 5-(Benzo[d]thiazol-2-yl)-6-((1R,2S,3R,4R)-2,3-dihydroxy-4-isopropylcyclopentylamino)-2-morpholinopyrimidin-4(3H)-one.HCl]"

# Same assay, conditions: 100 μM ATP; read-out: IC50
row,SMILES,IC50 [nM]
1,"O=c1[nH]c(C2CCN(C3CCOC3)CC2)nc(N[C@@H]2CCCNC2)c1-c1nc2ccccc2s1 (stereo partly drawn) [Example 233, 5-(1,3-benzothiazol-2-yl)-2-[1-(oxolan-3-yl)piperidin-4-yl]-6-[[(3R)-piperidin-3-yl]amino]pyrimidin-4-ol]",180
2,"O=c1[nH]c(N2CC3CCC(C2)O3)nc(N[C@@H]2CCCNC2)c1-c1nc2ccccc2s1 [Example 300, 5-(1,3-benzothiazol-2-yl)-2-[8-oxa-3-azabicyclo[3.2.1]octan-3-yl]-6-[[(3R)-piperidin-3-yl]amino]-3,4-dihydropyrimidin-4-one; trifluoroacetic acid]",43
3,"COC1CCN(c2nc(N[C@@H]3CCCNC3)c(-c3nc4ccccc4s3)c(=O)[nH]2)CC1 [Example 293, (R)-5-(benzo[d]thiazol-2-yl)-2-(4-methoxypiperidin-1-yl)-6-(piperidin-3-ylamino)pyrimidin-4(3H)-one]",63
4,"CN1CCC2(CCN(c3nc(N[C@@H]4CCCNC4)c(-c4nc5ccccc5s4)c(=O)[nH]3)C2)C1 (stereo partly drawn) [Example 325, 5-(1,3-benzothiazol-2-yl)-2-[7-methyl-2,7-diazaspiro[4.4]nonan-2-yl]-6-[[(3R)-piperidin-3-yl]amino]-3,4-dihydropyrimidin-4-one]",24
5,"O=c1[nH]c(C2CCN(S(=O)(=O)C3CC3)CC2)nc(N[C@@H]2CCCNC2)c1-c1nc2ccccc2s1 [Example 238, (R)-5-(1,3-benzothiazol-2-yl) 2-[1-(cyclopropane-sulfonyl)piperidin-4-yl]-6-[(piperidin-3-yl)amino]-3,4-dihydropyrimidin-4-one]",170
6,"O=c1[nH]c(C2CCN(CC3CC3)CC2)nc(N[C@@H]2CCCNC2)c1-c1nc2ccccc2s1 [Example 229, 5-(1,3-benzothiazol-2-yl)-2-[1-(cyclo-propylmethyl)piperidin-4-yl]-6-[[(3R)-piperidin-3-yl]amino]-3,4-dihydropyrimidin-4-one]",340

# Continued, values first:
row,IC50 [nM],SMILES
1,1600,"CN(C)CCNc1nc(N2CCOCC2)[nH]c(=O)c1-c1ccc2ccccc2n1 [Example 272, 6-[[2-(dimethylamino)ethyl]amino]-2-(morpholin-4-yl)-5-(quinolin-2-yl)-3,4-dihydropyrimidin-4-one]"
2,2500,"CC(C)C[C@H](CO)Nc1nc(N2CCOCC2)[nH]c(=O)c1-c1nc2ccccc2s1 [Example 266, (R)-5-(benzo[d]thiazol-2-yl)-6-(1-hydroxy-4-methylpentan-2-ylamino)-2-morpholinopyrimidin-4(3H)-one]"
3,8300,"O=c1[nH]c(N2CCOCC2)nc(N[C@H]2c3ccccc3C[C@H]2O)c1-c1nc2ccccc2s1 [Example 267, 5-(benzo[d]thiazol-2-yl)-6-((1S,2R)-2-hydroxy-2,3-dihydro-1H-inden-1-ylamino)-2-morpholinopyrimidin-4(3H)-one]"

# Same assay, conditions: 100 μM ATP; read-out: IRAK4 IC50
row,IC50 [nM],SMILES
1,139,"O=c1[nH]c(N2CC3CC2CS(=O)(=O)C3)nc(N[C@@H]2CCCNC2)c1-c1ccc2ccccc2n1 (stereo partly drawn) [Example 174, 2-(3,3-dioxido-3-thia-6-azabicyclo[3.2.1]octan-6-yl)-6-((R)-piperidin-3-ylamino)-5-(quinolin-2-yl)pyrimidin-4(3H)-one]"
2,16,"O=c1[nH]c(N2CCC(c3ccccc3)CC2)nc(N[C@@H]2CCCNC2)c1-c1ccc2ccccc2n1 [Example 187, (R)-2-(4-phenylpiperidin-1-yl)-6-(piperidin-3-ylamino)-5-(quinolin-2-yl)pyrimidin-4(3H)-one]"
3,3150,"CC1(O)CN(c2nc(N[C@@H]3CCCNC3)c(-c3ccc4ccccc4n3)c(=O)[nH]2)C1 [Example 171, (R)-2-(3-hydroxy-3-methylazetidin-1-yl)-6-(piperidin-3-ylamino)-5-(quinolin-2-yl)pyrimidin-4(3H)-one]"
4,45,"O=c1[nH]c(N2CCC(c3cccc(F)n3)CC2)nc(N[C@@H]2CCCNC2)c1-c1ccc2ccccc2n1 [Example 193, (R)-2-(4-(6-fluoropyridin-2-yl)piperidin-1-yl)-6-(piperidin-3-ylamino)-5-(quinolin-2-yl)pyrimidin-4(3H)-one]"

# Same assay, conditions: unit inferred; 100 μM ATP; read-out: IRAK4 IC50
row,IC50 [nM],SMILES
1,12.5,"O=c1[nH]c(N2CCC(c3cnccn3)CC2)nc(N[C@@H]2C[C@H](CO)[C@@H](O)[C@H]2O)c1-c1nc2ccccc2s1 [Example 69, 5-(benzo[d]thiazol-2-yl)-6-((1R,2S,3R,4R)-2,3-dihydroxy-4-(hydroxymethyl)cyclopentylamino)-2-(4-(pyrazin-2-yl)piperidin-1-yl)pyrimidin-4(3H)-one]"
